Values belong to the molecule of their own block, whether it stands above or below them.
What was measured:
Type in all cases: biochemical
[1] = molecular target: T1, insulin degrading enzyme (IDE) (Homo sapiens, UniProt P14735); test: SDS-PAGE assay for ghrelin proteolysis by IDE; conditions: EDTA added to the enzyme pre-mixture, 50 mM Tris pH 7.3, 37 °C
[2] = molecular target: T1, insulin degrading enzyme (IDE); test: Identification of IDE-mediated cleavage sites by HPLC and MALDI-TOF; conditions: HPLC (C-18) and MALDI-TOF; 50 mM Tris pH 7.3, 37 °C; three runs
[3] = molecular target: T1, insulin degrading enzyme (IDE); test: Circular dichroism analysis of insulin degradation by IDE; conditions: CD at 222 nm and LC, substrate:enzyme ratio 100:1, 37 °C

inhibition of IDE-mediated ghrelin proteolysis [1]: inhibited
Molecule: O=C(O)CN(CCN(CC(=O)O)CC(=O)O)CC(=O)O [EDTA, ethylenediaminetetraacetate]

IDE-mediated cleavage sites (initial) [2]: Q13/ Q14, Q14/R15 and possibly Q10/R11
Molecule: CCCCCCCC(=O)OC[C@H](NC(=O)[C@H](CO)NC(=O)CN)C(=O)N[C@@H](Cc1ccccc1)C(=O)N[C@@H](CC(C)C)C(=O)N[C@@H](CO)C(=O)N1CCC[C@H]1C(=O)N[C@@H](CCC(=O)O)C(=O)N[C@@H](Cc1cnc[nH]1)C(=O)N[C@@H](CCC(N)=O)C(=O)N[C@@H](CCCNC(=N)N)C(=O)N[C@H](C(=O)N[C@@H](CCC(N)=O)C(=O)N[C@@H](CCC(N)=O)C(=O)N[C@@H](CCCNC(=N)N)C(=O)N[C@@H](CCCCN)C(=O)N[C@@H](CCC(=O)O)C(=O)N[C@@H](CO)C(=O)N[C@@H](CCCCN)C(=O)N[C@@H](CCCCN)C(=O)N1CCC[C@H]1C(=O)N1CCC[C@H]1C(=O)N[C@@H](C)C(=O)N[C@@H](CCCCN)C(=O)N[C@@H](CC(C)C)C(=O)N[C@@H](CCC(N)=O)C(=O)N1CCC[C@H]1C(=O)N[C@@H](CCCNC(=N)N)C(=O)O)C(C)C [ghrelin]

Molecule: insulin: established IDE substrate, used in CD experiments
insulin degradation by IDE in 30% TFE [3]: does not degrade

Reference: publication doi:10.1101/2021.06.10.447714v2 (bioRxiv, 2021)
